The results in this text go back to patent US7145015B2, “Benzocycloheptenes, process for their production, pharmaceutical preparations that contain that latter as well as their use for the production of pharmaceutical agents” (Schering AG, priority 1998, dated 2006).

A word on the melting point: it is the temperature, or range, at which the solid turns liquid. Compound `O=S(=O)(CCCCCOc1ccc(C2=C(c3ccccc3)CCCc3cc(O)ccc32)cc1)c1ccccc1` [Example 53, 6-phenyl-5-[4-(5-phenylsulfonyl-pentyloxy)-phenyl]-8,9-dihydro-7H-benzocyclohepten-2-ol] had a melting point of 162 °C. `CC(C)(C)c1ccc(SCCCCCOc2ccc(C3=C(c4ccccc4)CCCc4cc(O)ccc43)cc2)cc1` [Example 54, 5-{4-[5-(4-tert-Butyl-phenylthio)-pentyloxy]-phenyl}-6-phenyl-8,9-dihydro-7H-benzocyclohepten-2-ol] displayed a melting point of 139 °C.
